The source of these data is patent US20240299385A1 (ReWind Therapeutics NV, priority 2021, published 2024).

This experiment deals with T1, human GPR17 receptor (Homo sapiens, UniProt Q13304).
T1 construct: host or cells: HEK-293
T1 sequence (Q13304 whole entry): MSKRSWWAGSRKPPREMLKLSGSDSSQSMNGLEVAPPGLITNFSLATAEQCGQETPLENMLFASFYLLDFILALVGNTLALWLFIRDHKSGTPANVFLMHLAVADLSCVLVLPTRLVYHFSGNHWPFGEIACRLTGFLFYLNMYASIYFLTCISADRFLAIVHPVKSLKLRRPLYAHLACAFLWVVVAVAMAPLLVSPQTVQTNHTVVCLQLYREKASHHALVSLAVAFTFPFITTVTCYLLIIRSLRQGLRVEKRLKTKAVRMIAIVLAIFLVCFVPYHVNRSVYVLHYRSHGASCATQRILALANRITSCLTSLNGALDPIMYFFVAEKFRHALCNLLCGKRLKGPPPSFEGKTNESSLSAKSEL
Nature of the experiment: Calcium mobilization functional assay (Fluo-8, FLIPR TETRA) in HEK-293 hGPR17 (Gα-q assay). It counts as cell-based. As to conditions: antagonism of MDL29,951 (~EC80) induced Ca2+ signal; cell line (HEK-293 hGPR17 or HEK-293 Suchi5 hGPR17) not given. Summed up: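 Fluo-8-loaded HEK-293 hGPR17 cells (60 min dye loading, room temperature) were preincubated with compound for twenty minutes, then challenged with agonist MDL29,951 at ~EC80, 500 nM. Intracellular calcium release via Gα-q was recorded as FLIPR fluorescence for a further 2 minutes; compounds tested in duplicate.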
As to `O=S(=O)(Nc1cc(F)c(Cl)cc1F)c1c[nH]c(-c2ccccc2)c1` [Cpd 145, N-(4-chloro-2,5-difluoro-phenyl)-5-phenyl-1H-pyrrole-3-sulfonamide], the 50% inhibitory concentration (IC50) is 0.5 to 5 µM.

Turning to `O=S(=O)(Nc1cc(Cl)ncc1F)c1c[nH]c(-c2ccccc2)c1` [Cpd 146, N-(2-chloro-5-fluoro-4-pyridyl)-5-phenyl-1H-pyrrole-3-sulfonamide], the IC50 was in the range of 5 to 50 µM.

On to `COc1nc(C(F)(F)F)ccc1NS(=O)(=O)c1c[nH]c(-c2ccccc2)c1` [Cpd 147, N-[2-methoxy-6-(trifluoromethyl)-3-pyridyl]-5-phenyl-1H-pyrrole-3-sulfonamide], for which the half-maximal inhibitory concentration (IC50) was in the range of 0.5 to 5 µM.

Regarding `O=S(=O)(Nc1cc(F)c(C(F)(F)F)cc1F)c1c[nH]c(-c2ncccc2F)c1` [Cpd 148, N-(2,5-difluoro-4-(trifluoromethyl)phenyl)-5-(3-fluoropyridin-2-yl)-1H-pyrrole-3-sulfonamide], the IC50 is below 0.5 µM.

Turning to `O=S(=O)(Nc1cccc2c1OCO2)c1c[nH]c(-c2ccccn2)c1` [Cpd 149, N-(1,3-benzodioxol-4-yl)-5-(2-pyridyl)-1H-pyrrole-3-sulfonamide], the IC50 was in the range of 0.5 to 5 µM.

Regarding `O=S(=O)(Nc1cc(F)c(C(F)(F)F)cc1F)c1c[nH]c(-c2ncccn2)c1` [Cpd 150, N-[2,5-difluoro-4-(trifluoromethyl)phenyl]-5-pyrimidin-2-yl-1H-pyrrole-3-sulfonamide], the IC50 lay within 0.5 to 5 µM.

As for `O=S(=O)(Nc1ccc(F)cc1F)c1c[nH]cc1Cc1ccccc1` [Cpd 151, 4-benzyl-N-(2,4-difluorophenyl)-1H-pyrrole-3-sulfonamide], the IC50 was 5 to 50 µM.

With `O=S(=O)(Nc1ccc(C(F)(F)F)nc1)c1c[nH]cc1Cc1ccccc1` [Cpd 152, 4-benzyl-N-[6-(trifluoromethyl)-3-pyridyl]-1H-pyrrole-3-sulfonamide], the IC50 fell in the range of 5 to 50 µM.

`O=S(=O)(Nc1ccc(Cl)cc1F)c1c[nH]cc1Cc1ccccc1` [Cpd 153, 4-benzyl-N-(4-chloro-2-fluoro-phenyl)-1H-pyrrole-3-sulfonamide]: the IC50 fell in the range of 5 to 50 µM.

As for `COc1cc(C(F)(F)F)ccc1NS(=O)(=O)c1c[nH]c(-c2ccccn2)c1` [Cpd 154, N-[2-methoxy-4-(trifluoromethyl)phenyl]-5-(2-pyridyl)-1H-pyrrole-3-sulfonamide], the IC50 is 0.5 to 5 µM.

Take `Cc1cccnc1-c1cc(S(=O)(=O)Nc2cc(F)c(C(F)(F)F)cc2F)c[nH]1` [Cpd 155, N-[2,5-difluoro-4-(trifluoromethyl)phenyl]-5-(3-methyl-2-pyridyl)-1H-pyrrole-3-sulfonamide]: the IC50 was below 0.5 µM.

For the molecule `Cn1ccnc1-c1cc(S(=O)(=O)Nc2cc(F)c(C(F)(F)F)cc2F)c[nH]1` [Cpd 156, N-[2,5-difluoro-4-(trifluoromethyl)phenyl]-5-(1-methylimidazol-2-yl)-1H-pyrrole-3-sulfonamide], the IC50 lay within 0.5 to 5 µM.

In the case of `O=S(=O)(Nc1ccc(OC(F)(F)F)cc1F)c1c[nH]c(-c2ccccn2)c1` [Cpd 157, N-[2-fluoro-4-(trifluoromethoxy)phenyl]-5-(2-pyridyl)-1H-pyrrole-3-sulfonamide], the IC50 lay in the range of 0.5 to 5 µM.

For `O=S(=O)(Nc1cc(F)c(C(F)(F)F)cc1F)c1c[nH]cc1Cc1ccccc1` [Cpd 158, 4-benzyl-N-[2,5-difluoro-4-(trifluoromethyl)phenyl]-1H-pyrrole-3-sulfonamide], the IC50 lay in the range of 0.5 to 5 µM.

Take `O=S(=O)(Nc1ccc(F)cc1F)c1c[nH]c(-c2ncccc2F)c1` [Cpd 160, N-(2,4-difluorophenyl)-5-(3-fluoro-2-pyridyl)-1H-pyrrole-3-sulfonamide]: the IC50 lay in the range of 5 to 50 µM.

In the case of `COc1cc(C#N)ccc1NS(=O)(=O)c1c[nH]cc1Cc1ccccc1` [Cpd 161, 4-benzyl-N-(4-cyano-2-methoxy-phenyl)-1H-pyrrole-3-sulfonamide], the half-inhibitory concentration (IC50) is 5 to 50 µM.

In the case of `N#Cc1ccc(NS(=O)(=O)c2c[nH]cc2Cc2ccccc2)cc1` [Cpd 162, 4-benzyl-N-(4-cyanophenyl)-1H-pyrrole-3-sulfonamide], the half-inhibitory concentration (IC50) was 0.5 to 5 µM.

Take `O=S(=O)(Nc1ccccc1F)c1c[nH]cc1Cc1ccccc1` [Cpd 163, 4-benzyl-N-(2-fluorophenyl)-1H-pyrrole-3-sulfonamide]: the IC50 was in the range of 5 to 50 µM.

Take `O=S(=O)(Nc1ncc(Cl)cc1F)c1c[nH]c(-c2ccccn2)c1` [Cpd 164, N-(5-chloro-3-fluoro-2-pyridyl)-5-(2-pyridyl)-1H-pyrrole-3-sulfonamide]: the IC50 lay in the range of 0.5 to 5 µM.

In the case of `COc1cc(CC#N)ccc1NS(=O)(=O)c1c[nH]c(-c2ccccc2)c1` [Cpd 165, N-[4-(cyanomethyl)-2-methoxy-phenyl]-5-phenyl-1H-pyrrole-3-sulfonamide], the IC50 is 0.5 to 5 µM.

Consider `N#Cc1cnc(NS(=O)(=O)c2c[nH]c(-c3ccccc3)c2)c(F)c1` [Cpd 166, N-(5-cyano-3-fluoro-2-pyridyl)-5-phenyl-1H-pyrrole-3-sulfonamide], for which the IC50 lay in the range of 0.5 to 5 µM.

Take `COc1cc(Br)cnc1NS(=O)(=O)c1c[nH]c(-c2ccccn2)c1` [Cpd 167, N-(5-bromo-3-methoxy-2-pyridyl)-5-(2-pyridyl)-1H-pyrrole-3-sulfonamide]: the IC50 lay within 0.5 to 5 µM.

Regarding `O=S(=O)(Nc1ncc(Br)cc1F)c1c[nH]c(-c2ccccc2)c1` [Cpd 168, N-(5-bromo-3-fluoro-2-pyridyl)-5-phenyl-1H-pyrrole-3-sulfonamide], the IC50 fell in the range of 0.5 to 5 µM.

In the case of `N#CCc1cnc(NS(=O)(=O)c2c[nH]c(-c3ccccc3)c2)c(F)c1` [Cpd 169, N-[5-(cyanomethyl)-3-fluoro-2-pyridyl]-5-phenyl-1H-pyrrole-3-sulfonamide], the IC50 was in the range of 5 to 50 µM.

Take `COc1cccnc1-c1cc(S(=O)(=O)Nc2cc(F)c(C(F)(F)F)cc2F)c[nH]1` [Cpd 170, N-[2,5-difluoro-4-(trifluoromethyl)phenyl]-5-(3-methoxy-2-pyridyl)-1H-pyrrole-3-sulfonamide]: the IC50 was 0.5 to 5 µM.

For the molecule `N#Cc1ccc(NS(=O)(=O)c2c[nH]cc2Cc2cccc(F)c2)c(F)c1` [Cpd 171, N-(4-cyano-2-fluoro-phenyl)-4-[(3-fluorophenyl)methyl]-1H-pyrrole-3-sulfonamide], the IC50 was below 0.5 µM.

Take `Cc1cc(F)c(NS(=O)(=O)c2c[nH]c(-c3ccccn3)c2)cc1F` [Cpd 173, N-(2,5-difluoro-4-methyl-phenyl)-5-(2-pyridyl)-1H-pyrrole-3-sulfonamide]: the IC50 is below 0.5 µM.

Regarding `O=S(=O)(Nc1cc(F)c(-c2ccccc2)cc1F)c1c[nH]c(-c2ccccn2)c1` [Cpd 174, N-(2,5-difluoro-4-phenyl-phenyl)-5-(2-pyridyl)-1H-pyrrole-3-sulfonamide], the IC50 lay in the range of 5 to 50 µM.

`COc1cc(C(F)(F)F)cnc1NS(=O)(=O)c1c[nH]c(-c2ccccc2)c1` [Cpd 175, N-[3-methoxy-5-(trifluoromethyl)-2-pyridyl]-5-phenyl-1H-pyrrole-3-sulfonamide]: the IC50 fell in the range of 0.5 to 5 µM.

With `O=S(=O)(Nc1ncc(C(F)(F)F)cc1F)c1c[nH]c(-c2ccccc2F)c1` [Cpd 176, 5-(2-fluorophenyl)-N-[3-fluoro-5-(trifluoromethyl)-2-pyridyl]-1H-pyrrole-3-sulfonamide], the IC50 was in the range of 0.5 to 5 µM.

As to `N#Cc1ccc(NS(=O)(=O)c2c[nH]cc2Cc2ccc(F)cc2)c(F)c1` [Cpd 177, N-(4-cyano-2-fluoro-phenyl)-4-[(4-fluorophenyl)methyl]-1H-pyrrole-3-sulfonamide], the IC50 is below 0.5 µM.

Regarding `O=S(=O)(Nc1cc(F)c(F)cc1F)c1c[nH]c(-c2ccccn2)c1` [Cpd 179, 5-(2-pyridyl)-N-(2,4,5-trifluorophenyl)-1H-pyrrole-3-sulfonamide], the IC50 lay in the range of 0.5 to 5 µM.

Take `COc1cccc(F)c1-c1cc(S(=O)(=O)Nc2cc(F)c(C(F)(F)F)cc2F)c[nH]1` [Cpd 180, N-[2,5-difluoro-4-(trifluoromethyl)phenyl]-5-(2-fluoro-6-methoxy-phenyl)-1H-pyrrole-3-sulfonamide]: the IC50 was in the range of 0.5 to 5 µM.

As for `O=S(=O)(Nc1ccc(Cl)cc1F)c1c[nH]c(-c2ccccn2)c1` [Cpd 181, N-(4-chloro-2-fluoro-phenyl)-5-(2-pyridyl)-1H-pyrrole-3-sulfonamide], the IC50 was 0.5 to 5 µM.

With `N#Cc1ccc(NS(=O)(=O)c2c[nH]cc2Cc2ccccc2F)c(F)c1` [Cpd 182, N-(4-cyano-2-fluoro-phenyl)-4-[(2-fluorophenyl)methyl]-1H-pyrrole-3-sulfonamide], the half-maximal inhibitory concentration (IC50) lay in the range of 0.5 to 5 µM.

Consider `COc1cc(F)c(NS(=O)(=O)c2c[nH]c(-c3ccccn3)c2)cc1F` [Cpd 183, N-(2,5-difluoro-4-methoxy-phenyl)-5-(2-pyridyl)-1H-pyrrole-3-sulfonamide], for which the IC50 was 0.5 to 5 µM.

`N#Cc1ccc(NS(=O)(=O)c2c[nH]cc2Cc2cccnc2)c(F)c1` [Cpd 184, N-(4-cyano-2-fluoro-phenyl)-4-(3-pyridylmethyl)-1H-pyrrole-3-sulfonamide]: the IC50 lay within 0.5 to 5 µM.

Turning to `C#Cc1cc(F)c(NS(=O)(=O)c2c[nH]c(-c3ccccn3)c2)cc1F` [Cpd 185, N-(4-ethynyl-2,5-difluoro-phenyl)-5-(2-pyridyl)-1H-pyrrole-3-sulfonamide], the IC50 lay in the range of 0.5 to 5 µM.

In the case of `O=S(=O)(Nc1ccc(C(F)(F)F)nc1F)c1c[nH]c(-c2ccccc2)c1` [Cpd 186, N-[2-fluoro-6-(trifluoromethyl)-3-pyridyl]-5-phenyl-1H-pyrrole-3-sulfonamide], the IC50 fell in the range of 0.5 to 5 µM.

For the molecule `O=S(=O)(Nc1cc2cccnc2cc1F)c1c[nH]c(-c2ccccc2)c1` [Cpd 187, N-(7-fluoro-6-quinolyl)-5-phenyl-1H-pyrrole-3-sulfonamide], the IC50 is 0.5 to 5 µM.

For `O=S(=O)(Nc1ccc(OC(F)F)nc1F)c1c[nH]c(-c2ccccc2)c1` [Cpd 188, N-[6-(difluoromethoxy)-2-fluoro-3-pyridyl]-5-phenyl-1H-pyrrole-3-sulfonamide], the IC50 is 0.5 to 5 µM.
